Laboratory results published in US12201627B2, “NLRP3 modulators” (Innate Tumor Immunity, Inc., priority 2018, dated 2025).

Key:
NLRP3 = molecular target: T1, NLRP3 (Homo sapiens, UniProt Q96P20); assay: Measurement of IL-1β production in PMA-differentiated THP-1 cells (NLRP3 hIL1B); type: cell-based; settings: read-out: NLRP3 hILIB IC50
T1 construct: host or cells: PMA-differentiated THP-1 cells
Experimental: Measurement of IL-1β Production in PMA-Differentiated THP-1 Cells
THP-1 cells were purchased from the American Type Culture Collection and sub-cultured according to instructions from the supplier. Prior to experiments, cells were cultured in RPMI 1640 containing 10% heat inactivated FBS, penicillin (100 units/ml) and streptomycin (100 μg/ml), and maintained in log phase prior to experimental setup. Prior to the experiment THP-1 were treated with PMA (Phorbol 12-myristate 13-acetate) ([…]) for 24 hours. The day of the experiment the media was removed and attaching cells were treated with trypsin for 2 minutes, cells were then collected, washed with PBS (phosphate buffer saline), spin down, resuspended in 2% heat inactivated FBS with RPMI at a concentration of 1×10^6 cells/ml, and 100 μl was plated in a 96 well plate. Compounds were dissolved in dimethyl sulfoxide (DMSO) and added to the culture medium to achieve desired concentration (e.g. 100, 30, 10, 3, 1, 0.3 or 0.1 μM). Cells were incubated with compounds for 4 hours. Cell free supernatant was collected and the production of IL-1β was evaluated by ELISA. A vehicle only control was run concurrently with each experiment. Final DMSO concentration was 1%.
Measurement of IL-1β Production in PMA-Differentiated THP-1 Cells (Alternative Procedure)
THP-1 cells were purchased from the American Type Culture Collection and sub-cultured according to instructions from the supplier. Prior to experiments, cells were cultured in RPMI 1640 containing 10% heat inactivated FBS, penicillin (100 units/ml), streptomycin (100 μg/ml), HEPES (10 mM) and sodium pyruvate (1 mM) and maintained in log phase prior to experimental setup. Prior to the experiment, THP-1 cells were treated with PMA (Phorbol 12-myristate 13-acetate) (20 μg/ml) overnight. The day of the experiment, the media was removed and attached cells were treated with trypsin for 2 minutes, cells were then collected, washed with PBS (phosphate buffer saline), pelleted by centrifugation and resuspended in 2% heat inactivated FBS with RPMI at a concentration of 50,000 cells/well in a 384 well plate. Cell free supernatant was collected and the production of IL-1β was evaluated by ELISA. Compounds were dissolved in dimethyl sulfoxide (DMSO) and added to the culture medium to achieve desired concentration (e.g. 100, 30, 10, 3, 1, 0.3 or 0.1 μM). Cells were incubated with compounds for 2 hours. A vehicle only control was run concurrently with each experiment. Final DMSO concentration was 1%.
Measurement of IL-1β Production—hTRF Protocol (Second Alternative Procedure)
Serial dilutions of compounds in DMSO were added to low volume 384 well plates at 100 nl/well using an ECHO 550 acoustic dispenser (Labcyte) to achieve final starting concentration of 10 μM in assay.
THP-1 cells in RPMI (Gibco, 11875) media with 10% FBS at a density of 1×10^6 cell/ml in a T175 flask were treated with a final concentration of phorbol 12-myristate 13-acetate (PMA) (Sigma, P1585) of 50 ng/ml overnight at 37° C. at 5% CO2 for differentiation. Cells were harvested the next day after rinsing well with dPBS using 0.5% trypsin. A cell solution was prepared of 1×10^6 cells/ml for 50,000 cells in 50 μl/well in RPMI media with 2% FBS. Cells were plated using a multichannel pipette onto the compound dilutions in Greiner, 384 well, black clear bottom tissue culture treated plates (781090). The plates were incubated in 37° C. incubator at 5% CO2 for 2 hours.
After the 2 hour incubation, the cell plates were spun in the centrifuge for 5 minutes at 1200 rpm. Using the Felix (CyBio), 8 μl of the supernatant was transferred to 384 well, low volume, white proxy plates. (Perkin Elmer, 6008230). A human IL1beta hTRF kit was used to analyze the supernatant (CISBIO, 62HIL1BPEG). The kit instructions were followed for preparing the IL1Beta standard curve and then the antibodies from the kit were diluted 1:40 rather than 1:20 as kit instructed. […]

human TLR8 = molecular target: T2, human TLR8 (Homo sapiens, UniProt Q9NR97); assay: In vitro human TLR8 reporter assay (HEK-Blue cells, NF-kB/AP1-inducible SEAP); type: cell-based; settings: HEK-Blue cells expressing TLR8, SEAP reporter; read-out: TLR8 Agonist EC50
T2 construct: host or cells: HEK-Blue cells (human HEK) co-expressing TLR8 and an NF-kB/AP1-inducible SEAP reporter
T2 sequence (Q9NR97 27-1041): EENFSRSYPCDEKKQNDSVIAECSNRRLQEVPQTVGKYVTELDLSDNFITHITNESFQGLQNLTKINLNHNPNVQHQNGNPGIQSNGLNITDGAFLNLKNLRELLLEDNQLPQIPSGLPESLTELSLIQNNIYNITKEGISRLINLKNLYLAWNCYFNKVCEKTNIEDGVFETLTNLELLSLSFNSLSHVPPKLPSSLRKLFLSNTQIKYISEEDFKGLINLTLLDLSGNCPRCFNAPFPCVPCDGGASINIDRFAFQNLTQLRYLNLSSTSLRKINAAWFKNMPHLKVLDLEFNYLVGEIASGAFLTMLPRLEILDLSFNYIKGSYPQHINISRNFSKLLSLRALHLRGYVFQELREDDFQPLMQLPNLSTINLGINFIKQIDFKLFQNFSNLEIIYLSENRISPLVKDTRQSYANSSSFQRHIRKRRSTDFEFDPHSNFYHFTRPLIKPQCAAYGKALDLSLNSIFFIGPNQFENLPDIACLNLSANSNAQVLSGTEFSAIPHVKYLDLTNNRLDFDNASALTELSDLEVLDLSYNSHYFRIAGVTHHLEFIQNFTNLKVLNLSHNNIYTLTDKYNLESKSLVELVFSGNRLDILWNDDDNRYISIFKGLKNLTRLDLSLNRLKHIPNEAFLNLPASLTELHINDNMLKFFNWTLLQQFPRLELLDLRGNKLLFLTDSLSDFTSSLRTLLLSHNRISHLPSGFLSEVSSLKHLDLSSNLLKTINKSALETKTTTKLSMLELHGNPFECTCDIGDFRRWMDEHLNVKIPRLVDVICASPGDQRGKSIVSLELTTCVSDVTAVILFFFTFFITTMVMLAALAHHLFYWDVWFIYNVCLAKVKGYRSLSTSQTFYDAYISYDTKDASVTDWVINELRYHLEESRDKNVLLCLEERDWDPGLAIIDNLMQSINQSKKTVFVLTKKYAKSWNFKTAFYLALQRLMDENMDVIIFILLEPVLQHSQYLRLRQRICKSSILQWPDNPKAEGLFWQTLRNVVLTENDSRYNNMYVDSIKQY
Experimental: In Vitro Human TLR7 and TLR8 Binding Reporter Assays
Logarithmically-growing human HEK-Blue cells co-expressing a TLR7 or TLR8 gene and a NF-kB/AP1-inducible SEAP (secreted embryonic alkaline phosphatase; Invivogen, San Diego, Calif.) reporter gene are added to individual wells of a 384-well plate (15,000 cells per 20 μL per well) and maintained for 24 h at 37° C., 5% CO2. Test compounds or DMSO are distributed to separate wells the next day using acoustic liquid handling technology (100 nL per well) and cells are subsequently incubated for 18 h at 37° C., 5% CO2. Cellular SEAP production is measured using an Envision plate reader instrument thirty minutes after adding freshly-made Quanti-Blue reagent (prepared by following manufacturer instructions; Invivogen, San Diego, Calif.) to the HEK-Blue TLR Nf-kB-SEAP cell reactions. All EC50 values (half-maximal effective concentration) are determined using proprietary data analysis software. Normalized EC50 value=absolute value determined by setting 100% Ymax using a reference standard RLU (relative light unit) values from cells treated with 50 μM of the reference standard.

T1 sequence (Q96P20 whole entry): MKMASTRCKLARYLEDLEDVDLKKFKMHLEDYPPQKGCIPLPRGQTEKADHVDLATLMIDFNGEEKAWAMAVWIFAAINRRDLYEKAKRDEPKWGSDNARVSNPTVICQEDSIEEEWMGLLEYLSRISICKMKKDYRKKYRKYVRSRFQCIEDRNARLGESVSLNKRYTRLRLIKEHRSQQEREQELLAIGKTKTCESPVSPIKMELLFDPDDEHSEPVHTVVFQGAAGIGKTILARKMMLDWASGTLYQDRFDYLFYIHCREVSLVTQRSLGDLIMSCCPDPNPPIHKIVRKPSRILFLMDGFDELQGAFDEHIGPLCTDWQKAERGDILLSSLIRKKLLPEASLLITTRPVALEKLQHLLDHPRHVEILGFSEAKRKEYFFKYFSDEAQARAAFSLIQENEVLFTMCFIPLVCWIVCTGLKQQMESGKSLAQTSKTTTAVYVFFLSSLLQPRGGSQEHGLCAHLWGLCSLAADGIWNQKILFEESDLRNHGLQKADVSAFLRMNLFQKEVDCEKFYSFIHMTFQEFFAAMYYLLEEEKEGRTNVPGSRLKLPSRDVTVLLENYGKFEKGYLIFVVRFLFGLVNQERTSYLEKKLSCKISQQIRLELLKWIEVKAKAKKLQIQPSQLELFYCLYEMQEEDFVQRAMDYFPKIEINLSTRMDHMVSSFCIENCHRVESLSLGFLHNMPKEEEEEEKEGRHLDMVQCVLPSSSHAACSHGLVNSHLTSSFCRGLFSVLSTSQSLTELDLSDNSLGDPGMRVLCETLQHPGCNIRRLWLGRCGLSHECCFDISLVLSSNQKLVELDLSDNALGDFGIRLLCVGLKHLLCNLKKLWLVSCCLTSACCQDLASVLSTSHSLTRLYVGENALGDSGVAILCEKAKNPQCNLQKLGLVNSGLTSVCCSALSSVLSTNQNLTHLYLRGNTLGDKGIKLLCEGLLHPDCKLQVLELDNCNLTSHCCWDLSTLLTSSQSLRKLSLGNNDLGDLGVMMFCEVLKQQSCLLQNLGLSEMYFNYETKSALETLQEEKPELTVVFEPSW

IC50 (NLRP3) | EC50 (human TLR8) | SMILES
2200 nM |  | CC1(O)CN(Cc2nc3c(N)nc4cc(-c5cc[nH]n5)ccc4c3n2C2CCC2)C1 [Example 17]
80 nM | 1000 to 20000 nM | Nc1nc2cc(-c3cc[nH]n3)ccc2c2c1nc(CN1CC(F)(F)C1)n2CC(F)F [Example 2]
220 nM |  | Nc1nc2cc(-c3cc[nH]n3)ccc2c2c1nc(CN1CC(F)C1)n2CC(F)F [Example 3]
4800 nM |  | Nc1nc2cc(-c3cc[nH]n3)ccc2c2c1nc(CN1CC(O)C1)n2C1CC1 [Example 16]
260 nM |  | Nc1nc2cc(-c3cc[nH]n3)ccc2c2c1nc(CN1CC(F)C1)n2C1CCC1 [Example 6]
270 nM |  | COC1CN(Cc2nc3c(N)nc4cc(-c5cc[nH]n5)ccc4c3n2C2CC2)C1 [Example 5]
120 nM |  | COC1CN(Cc2nc3c(N)nc4cc(-c5cc[nH]n5)ccc4c3n2C2CCC2)C1 [Example 1, 1-cyclobutyl-2-[(3-methoxyazetidin-1-yl)methyl]-7-(1H-pyrazol-5-yl)-1H-imidazo[4,5-c]quinolin-4-amine]
2000 nM |  | N#CC1CN(Cc2nc3c(N)nc4cc(-c5cc[nH]n5)ccc4c3n2C2CC2)C1 [Example 12]
200 nM |  | Nc1nc2cc(-c3cc[nH]n3)ccc2c2c1nc(CN1CC(F)(F)C1)n2C1CCC1 [Example 8]
1610 nM |  | Nc1nc2cc(-c3cc[nH]n3)ccc2c2c1nc(CN1CC3(CCCO3)C1)n2C1CC1 [Example 14]
250 nM |  | Nc1nc2cc(-c3cc[nH]n3)ccc2c2c1nc(CN1CC(F)C1)n2C1CC1 [Example 10]
1100 nM |  | CC(C)n1c(CN2CC(C)(O)C2)nc2c(N)nc3cc(-c4cc[nH]n4)ccc3c21 [Example 15]
240 nM |  | Nc1nc2cc(-c3cc[nH]n3)ccc2c2c1nc(CN1CC3(CCCO3)C1)n2C1CCC1 [Example 11]
630 nM |  | CC(C)n1c(CN2CC(C#N)C2)nc2c(N)nc3cc(-c4cc[nH]n4)ccc3c21 [Example 13]
220 nM |  | COC1CN(Cc2nc3c(N)nc4cc(-c5cc[nH]n5)ccc4c3n2CC(F)F)C1 [Example 7]
180 nM |  | Nc1nc2cc(-c3cc[nH]n3)ccc2c2c1nc(CN1CCC1)n2C1CC1 [Example 4]
